Laboratory results published in article PMC4508061, “Selectivity Profiling and Biological Activity of Novel β-Carbolines as Potent and Selective DYRK1 Kinase Inhibitors” (PLoS ONE, 2015).

What was measured:
AKT3 = AKT3 (Homo sapiens, UniProt Q9Y243); test: ProQinase radiometric kinase panel; conditions: mean of 2 exp.
CAMK2B = CAMK2B (Homo sapiens, UniProt Q13554); test: ProQinase radiometric kinase panel; conditions: mean of 2 exp.
FAK = FAK (Homo sapiens, UniProt Q05397); test: ProQinase radiometric kinase panel; conditions: mean of 2 exp.
TRK-C = TRK-C (Homo sapiens, UniProt Q16288); test: ProQinase radiometric kinase panel; conditions: mean of 2 exp.
LCK = LCK (Homo sapiens, UniProt P06239); test: ProQinase radiometric kinase panel; conditions: mean of 2 exp.
Procedure: Gini coefficients were calculated and the Lorenz curve (Fig 3B) was plotted by applying the Microsoft Excel spreadsheet provided by Graczyk [44].
radiometric protein kinase assays.

ALK = ALK (Homo sapiens, UniProt Q9UM73); test: ProQinase radiometric kinase panel; conditions: mean of 2 exp.
CAMKK2 = CAMKK2 (Homo sapiens, UniProt Q96RR4); test: ProQinase radiometric kinase panel; conditions: mean of 2 exp.
PAK1 = PAK1 (Homo sapiens, UniProt Q13153); test: ProQinase radiometric kinase panel; conditions: mean of 2 exp.
SRC = SRC (Homo sapiens, UniProt P12931); test: ProQinase radiometric kinase panel; conditions: mean of 2 exp.
CDK2/CycE1 = CDK2/CycE1 (Homo sapiens, UniProt P24941); test: ProQinase radiometric kinase panel; conditions: mean of 2 exp.
EPHB3 = EPHB3 (Homo sapiens, UniProt P54753); test: ProQinase radiometric kinase panel; conditions: mean of 2 exp.
JAK1 = JAK1 (Homo sapiens, UniProt P23458); test: ProQinase radiometric kinase panel; conditions: mean of 2 exp.
Cell viability XTT assay = type: cell-based; conditions: human, SH-SY5Y cells, read-out: Viability of treated cells relative to untreated control
LIMK2 = LIMK2 (Homo sapiens, UniProt P53671); test: ProQinase radiometric kinase panel; conditions: mean of 2 exp.
ROCK1 = ROCK1 (Homo sapiens, UniProt Q13464); test: ProQinase radiometric kinase panel; conditions: mean of 2 exp.
SRMS = SRMS (Homo sapiens, UniProt Q9H3Y6); test: ProQinase radiometric kinase panel; conditions: mean of 2 exp.
PHKG2 = PHKG2 (Homo sapiens, UniProt P15735); test: ProQinase radiometric kinase panel; conditions: mean of 2 exp.
PRKG1 = PRKG1 (Homo sapiens, UniProt Q13976); test: ProQinase radiometric kinase panel; conditions: mean of 2 exp.
PIM2 = PIM2 (Homo sapiens, UniProt Q9P1W9); test: ProQinase radiometric kinase panel; conditions: mean of 2 exp.
GSK3-alpha = GSK3-alpha (Homo sapiens, UniProt P49840); test: ProQinase radiometric kinase panel; conditions: mean of 2 exp.
HIPK2 = HIPK2 (Homo sapiens, UniProt Q9H2X6); test: Kinase-GLO luminescent kinase assay; type: biochemical; parameters: made in house; host or cells: E. coli; conditions: 10 μM compound; means of at least 3 measurements
Summary of the method: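 E. coli-expressed GST fusions (DYRK1A-ΔC, DYRK1B and HIPK2 catalytic domains, DYRK2) assayed in 25 mM Hepes pH 7.4, 5 mM MgCl2, 5 μM ATP with DYRKtide (20 μM for DYRKs, 100 μM for HIPK2). Kinase dosed to consume ~90% ATP; 30 min at room temperature, remaining ATP read by Kinase-GLO luminescence.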

SNF1LK2 = SNF1LK2 (Homo sapiens, UniProt Q9H0K1); test: ProQinase radiometric kinase panel; conditions: mean of 2 exp.
IKK-alpha = IKK-alpha (Homo sapiens, UniProt O15111); test: ProQinase radiometric kinase panel; conditions: mean of 2 exp.
EPHA2 = EPHA2 (Homo sapiens, UniProt P29317); test: ProQinase radiometric kinase panel; conditions: mean of 2 exp.
MEKK2 = MEKK2 (Homo sapiens, UniProt Q9Y2U5); test: ProQinase radiometric kinase panel; conditions: mean of 2 exp.
COT = COT (Homo sapiens, UniProt P41279); test: ProQinase radiometric kinase panel; conditions: mean of 2 exp.
STK17A = STK17A (Homo sapiens, UniProt Q9UEE5); test: ProQinase radiometric kinase panel; conditions: mean of 2 exp.
ABL1 = ABL1 (Homo sapiens, UniProt P00519); test: ProQinase radiometric kinase panel; conditions: mean of 2 exp.
NEK3 = NEK3 (Homo sapiens, UniProt P51956); test: ProQinase radiometric kinase panel; conditions: mean of 2 exp.
STK39 = STK39 (Homo sapiens, UniProt Q9UEW8); test: ProQinase radiometric kinase panel; conditions: mean of 2 exp.
PKC-eta = PKC-eta (Homo sapiens, UniProt P24723); test: ProQinase radiometric kinase panel; conditions: mean of 2 exp.
EPHA4 = EPHA4 (Homo sapiens, UniProt P54764); test: ProQinase radiometric kinase panel; conditions: mean of 2 exp.
Chain of EPHA4 (P54764 20-986): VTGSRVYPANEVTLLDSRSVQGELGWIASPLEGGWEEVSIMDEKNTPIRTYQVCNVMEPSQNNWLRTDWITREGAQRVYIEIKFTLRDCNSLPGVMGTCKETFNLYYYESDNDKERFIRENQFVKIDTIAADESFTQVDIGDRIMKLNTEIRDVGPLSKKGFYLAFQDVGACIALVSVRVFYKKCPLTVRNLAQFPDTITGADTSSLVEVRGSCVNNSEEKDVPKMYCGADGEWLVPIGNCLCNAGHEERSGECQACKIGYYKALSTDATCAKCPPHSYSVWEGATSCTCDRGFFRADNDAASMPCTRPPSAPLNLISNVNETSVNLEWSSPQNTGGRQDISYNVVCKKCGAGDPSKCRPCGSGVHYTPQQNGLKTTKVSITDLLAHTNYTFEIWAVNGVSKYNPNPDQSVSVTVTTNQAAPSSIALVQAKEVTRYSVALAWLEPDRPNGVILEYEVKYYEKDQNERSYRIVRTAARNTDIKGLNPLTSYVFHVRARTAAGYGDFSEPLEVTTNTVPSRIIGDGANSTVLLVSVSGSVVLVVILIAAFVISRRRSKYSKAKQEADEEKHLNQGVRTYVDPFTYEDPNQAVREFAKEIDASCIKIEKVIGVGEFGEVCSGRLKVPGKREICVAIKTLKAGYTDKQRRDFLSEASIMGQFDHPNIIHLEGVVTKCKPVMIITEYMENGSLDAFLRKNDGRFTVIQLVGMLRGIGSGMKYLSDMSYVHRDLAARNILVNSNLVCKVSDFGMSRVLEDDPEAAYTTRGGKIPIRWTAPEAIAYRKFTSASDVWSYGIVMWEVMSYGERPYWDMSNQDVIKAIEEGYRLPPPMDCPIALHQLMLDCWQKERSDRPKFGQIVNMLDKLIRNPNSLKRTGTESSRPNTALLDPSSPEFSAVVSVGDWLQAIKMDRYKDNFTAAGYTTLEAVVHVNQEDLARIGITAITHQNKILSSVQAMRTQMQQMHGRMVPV

Chain of NEK3 (P51956 whole entry): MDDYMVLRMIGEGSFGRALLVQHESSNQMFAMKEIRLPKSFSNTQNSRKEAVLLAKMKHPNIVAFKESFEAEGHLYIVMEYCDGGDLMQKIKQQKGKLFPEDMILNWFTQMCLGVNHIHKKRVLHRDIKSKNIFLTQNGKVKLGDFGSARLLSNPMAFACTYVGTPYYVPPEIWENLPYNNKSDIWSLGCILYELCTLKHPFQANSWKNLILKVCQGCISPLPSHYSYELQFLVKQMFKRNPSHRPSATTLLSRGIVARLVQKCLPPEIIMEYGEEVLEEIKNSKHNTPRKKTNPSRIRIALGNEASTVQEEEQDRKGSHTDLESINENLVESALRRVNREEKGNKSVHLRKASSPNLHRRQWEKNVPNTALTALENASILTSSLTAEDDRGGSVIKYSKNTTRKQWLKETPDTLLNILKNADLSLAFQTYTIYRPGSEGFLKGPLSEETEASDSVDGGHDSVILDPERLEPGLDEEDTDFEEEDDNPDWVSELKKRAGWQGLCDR
Chain of IKK-alpha (O15111 whole entry): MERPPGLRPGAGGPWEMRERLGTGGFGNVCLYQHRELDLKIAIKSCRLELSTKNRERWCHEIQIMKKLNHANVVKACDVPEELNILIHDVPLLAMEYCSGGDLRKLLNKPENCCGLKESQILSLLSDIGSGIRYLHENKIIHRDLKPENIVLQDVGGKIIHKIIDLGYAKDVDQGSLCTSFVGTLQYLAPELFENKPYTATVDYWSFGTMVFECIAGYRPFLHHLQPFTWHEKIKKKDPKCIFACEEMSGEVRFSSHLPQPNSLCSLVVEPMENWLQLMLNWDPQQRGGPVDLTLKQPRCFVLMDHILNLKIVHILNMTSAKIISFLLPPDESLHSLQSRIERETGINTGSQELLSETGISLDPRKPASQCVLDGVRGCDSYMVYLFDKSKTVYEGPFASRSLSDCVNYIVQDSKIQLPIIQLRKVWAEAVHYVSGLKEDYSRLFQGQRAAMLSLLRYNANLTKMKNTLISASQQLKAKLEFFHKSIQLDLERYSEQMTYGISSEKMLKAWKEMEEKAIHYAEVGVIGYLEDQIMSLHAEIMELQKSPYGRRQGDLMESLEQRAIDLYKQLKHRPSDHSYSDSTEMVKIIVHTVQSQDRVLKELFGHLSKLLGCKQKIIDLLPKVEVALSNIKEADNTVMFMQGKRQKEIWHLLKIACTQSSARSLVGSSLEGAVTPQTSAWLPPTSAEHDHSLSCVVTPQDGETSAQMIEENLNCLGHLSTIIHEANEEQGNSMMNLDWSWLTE
Chain of SRMS (Q9H3Y6 whole entry): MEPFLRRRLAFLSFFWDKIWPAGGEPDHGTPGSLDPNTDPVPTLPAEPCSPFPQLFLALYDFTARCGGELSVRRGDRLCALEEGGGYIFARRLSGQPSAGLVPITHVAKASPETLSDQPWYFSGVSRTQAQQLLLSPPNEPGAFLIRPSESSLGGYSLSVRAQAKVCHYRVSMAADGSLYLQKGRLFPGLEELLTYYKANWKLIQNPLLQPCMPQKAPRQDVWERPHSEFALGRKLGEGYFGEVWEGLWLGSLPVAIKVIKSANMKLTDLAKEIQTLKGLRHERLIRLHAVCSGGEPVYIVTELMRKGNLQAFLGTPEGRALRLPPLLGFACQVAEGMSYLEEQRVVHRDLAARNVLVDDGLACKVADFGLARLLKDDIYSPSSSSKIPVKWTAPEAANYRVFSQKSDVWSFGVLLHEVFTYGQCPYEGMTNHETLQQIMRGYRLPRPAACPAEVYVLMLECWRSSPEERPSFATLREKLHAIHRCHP
Chain of GSK3-alpha (P49840 whole entry): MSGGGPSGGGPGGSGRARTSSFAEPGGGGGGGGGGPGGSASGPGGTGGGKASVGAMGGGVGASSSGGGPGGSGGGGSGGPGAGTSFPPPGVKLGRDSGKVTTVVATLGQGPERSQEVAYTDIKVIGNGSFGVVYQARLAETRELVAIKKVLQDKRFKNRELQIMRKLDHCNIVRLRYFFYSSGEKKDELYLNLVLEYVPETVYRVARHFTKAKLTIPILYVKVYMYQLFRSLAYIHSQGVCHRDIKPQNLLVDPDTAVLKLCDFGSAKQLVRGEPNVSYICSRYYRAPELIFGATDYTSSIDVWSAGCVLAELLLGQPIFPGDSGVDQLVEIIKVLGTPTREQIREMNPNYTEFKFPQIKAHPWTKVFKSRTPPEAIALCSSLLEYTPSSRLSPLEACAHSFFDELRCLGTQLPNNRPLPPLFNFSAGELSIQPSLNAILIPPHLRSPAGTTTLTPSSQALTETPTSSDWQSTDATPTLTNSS
Chain of FAK (Q05397 whole entry): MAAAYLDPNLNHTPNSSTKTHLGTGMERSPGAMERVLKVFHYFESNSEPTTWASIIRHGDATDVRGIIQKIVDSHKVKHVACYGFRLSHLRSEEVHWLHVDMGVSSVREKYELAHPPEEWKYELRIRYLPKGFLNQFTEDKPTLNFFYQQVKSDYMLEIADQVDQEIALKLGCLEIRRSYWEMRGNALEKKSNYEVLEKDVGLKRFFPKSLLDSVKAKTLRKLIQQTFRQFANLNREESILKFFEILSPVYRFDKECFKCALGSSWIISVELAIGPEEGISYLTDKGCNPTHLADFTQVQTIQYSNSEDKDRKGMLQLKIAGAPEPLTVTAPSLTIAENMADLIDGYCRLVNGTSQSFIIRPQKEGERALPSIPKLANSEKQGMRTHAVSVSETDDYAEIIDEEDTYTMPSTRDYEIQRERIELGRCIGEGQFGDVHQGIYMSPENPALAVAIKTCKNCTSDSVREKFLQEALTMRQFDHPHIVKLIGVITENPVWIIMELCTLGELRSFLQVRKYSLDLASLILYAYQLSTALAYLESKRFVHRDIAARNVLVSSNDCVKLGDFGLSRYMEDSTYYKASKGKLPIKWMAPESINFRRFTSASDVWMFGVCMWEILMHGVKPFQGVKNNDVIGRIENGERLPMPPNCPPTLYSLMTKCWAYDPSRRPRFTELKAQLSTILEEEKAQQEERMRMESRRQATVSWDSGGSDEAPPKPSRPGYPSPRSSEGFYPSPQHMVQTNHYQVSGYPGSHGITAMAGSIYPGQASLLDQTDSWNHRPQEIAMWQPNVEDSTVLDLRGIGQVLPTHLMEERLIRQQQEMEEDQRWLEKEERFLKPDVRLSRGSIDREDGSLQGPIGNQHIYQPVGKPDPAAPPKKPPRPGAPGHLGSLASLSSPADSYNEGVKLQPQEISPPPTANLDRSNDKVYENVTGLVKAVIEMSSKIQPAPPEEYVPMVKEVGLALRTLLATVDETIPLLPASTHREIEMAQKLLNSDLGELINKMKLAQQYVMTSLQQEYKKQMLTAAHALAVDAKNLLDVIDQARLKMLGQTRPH
Chain of SRC (P12931 whole entry): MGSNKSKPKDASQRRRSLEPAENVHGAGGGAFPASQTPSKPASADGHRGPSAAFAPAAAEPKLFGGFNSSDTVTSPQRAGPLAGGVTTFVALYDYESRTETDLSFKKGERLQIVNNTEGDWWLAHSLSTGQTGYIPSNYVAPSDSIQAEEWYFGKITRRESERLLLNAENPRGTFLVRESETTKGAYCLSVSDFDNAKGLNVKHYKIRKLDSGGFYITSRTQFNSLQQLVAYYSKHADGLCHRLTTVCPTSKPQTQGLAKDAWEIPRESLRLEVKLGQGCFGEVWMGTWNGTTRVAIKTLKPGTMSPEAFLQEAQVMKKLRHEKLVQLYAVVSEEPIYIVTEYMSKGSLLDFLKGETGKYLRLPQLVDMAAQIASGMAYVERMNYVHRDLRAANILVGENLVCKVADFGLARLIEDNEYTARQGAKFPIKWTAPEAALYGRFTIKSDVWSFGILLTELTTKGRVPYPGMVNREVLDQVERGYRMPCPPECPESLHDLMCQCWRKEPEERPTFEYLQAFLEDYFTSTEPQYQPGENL

For `COc1ccc2c3ccnc(Cl)c3n(CC#N)c2c1` [AnnH75], the “residual activity at 1 µM, Mean” value (AKT3) was 104 % of control, the “residual activity at 1 µM, Mean” value (CAMK2B) was 92 % of control and the “residual activity at 1 µM, Mean” value (FAK) was 103 % of control. The “residual activity at 1 µM, Mean” value (TRK-C) was 87 % of control, the “residual activity at 1 µM, Mean” value (LCK) was 91 % of control and the “residual activity at 1 µM, Mean” value (ALK) was 98 % of control. The “residual activity at 1 µM, Mean” value (CAMKK2) was 86 % of control, the “residual activity at 1 µM, Mean” value (PAK1) was 103 % of control and the “residual activity at 1 µM, Mean” value (SRC) was 95 % of control. The “residual activity at 1 µM, Mean” value (CDK2/CycE1) was 97 % of control, the “residual activity at 1 µM, Mean” value (EPHB3) was 96 % of control and the “residual activity at 1 µM, Mean” value (JAK1) was 93 % of control. For the same molecule, the viability at 3 days, 1 µM (Cell viability XTT assay; 1 μM) was 89%, the viability at 3 days, 3 µM (Cell viability XTT assay; 3 μM) was 73% and the “residual activity at 1 µM, Mean” value (LIMK2) was 94 % of control. For the same molecule, the “residual activity at 1 µM, Mean” value (ROCK1) was 73 % of control, the “residual activity at 1 µM, Mean” value (SRMS) was 92 % of control and the “residual activity at 1 µM, Mean” value (PHKG2) was 94 % of control. The “residual activity at 1 µM, Mean” value (PRKG1) was 87 % of control, the “residual activity at 1 µM, Mean” value (PIM2) was 107 % of control and the “residual activity at 1 µM, Mean” value (GSK3-alpha) was 81 % of control. For the same molecule, the “Residual activity (% of control) HIPK2” value (HIPK2) was 85 % of control, the “residual activity at 1 µM, Mean” value (SNF1LK2) was 91 % of control and the “residual activity at 1 µM, Mean” value (IKK-alpha) was 60 % of control. The “residual activity at 1 µM, Mean” value (EPHA2) was 93 % of control, the “residual activity at 1 µM, Mean” value (MEKK2) was 105 % of control and the “residual activity at 1 µM, Mean” value (COT) was 88 % of control. For the same molecule, the “residual activity at 1 µM, Mean” value (STK17A) was 89 % of control, the “residual activity at 1 µM, Mean” value (ABL1) was 95 % of control and the “residual activity at 1 µM, Mean” value (NEK3) was 91 % of control. For the same molecule, the “residual activity at 1 µM, Mean” value (STK39) was 85 % of control, the “residual activity at 1 µM, Mean” value (PKC-eta) was 79 % of control and the “residual activity at 1 µM, Mean” value (EPHA4) was 99 % of control.
